Experiments:
[1] = MRT in Balb/c mouse at 10 mg/kg, po or 1 mg/kg, iv administered as cassette dose measured upto 24 hrs by LC/MS/MS analysis; assay type: ADME, organism-based; settings: in vivo
[2] = Drug exposure in 129Sv mouse blood at 3 mg/kg, po by LC-MS/MS analysis; assay type: ADME, organism-based; settings: in vivo, read-out: Drug uptake
[3] = Dose normalized AUC in Balb/c mouse at 10 mg/kg, po and 1 mg/kg,iv administered as cassette dose measured upto 24 hrs by LC/MS/MS analysis; assay type: ADME, organism-based; parameters: dose 10 mg/kg, time <=24; settings: in vivo
Toll-like receptor 7 [4] = target: T1, Toll-like receptor 7 (Mus musculus, UniProt P58681); assay: Antagonist activity at mouse TLR7 expressed in human whole blood assessed as inhibition of ssRNA stimulated IFNalpha level preincubated for 30 mins followed by stimulation and measured after 20 hrs by AlphaLISA method; assay type: tissue-based
T1 sequence (P58681 whole entry): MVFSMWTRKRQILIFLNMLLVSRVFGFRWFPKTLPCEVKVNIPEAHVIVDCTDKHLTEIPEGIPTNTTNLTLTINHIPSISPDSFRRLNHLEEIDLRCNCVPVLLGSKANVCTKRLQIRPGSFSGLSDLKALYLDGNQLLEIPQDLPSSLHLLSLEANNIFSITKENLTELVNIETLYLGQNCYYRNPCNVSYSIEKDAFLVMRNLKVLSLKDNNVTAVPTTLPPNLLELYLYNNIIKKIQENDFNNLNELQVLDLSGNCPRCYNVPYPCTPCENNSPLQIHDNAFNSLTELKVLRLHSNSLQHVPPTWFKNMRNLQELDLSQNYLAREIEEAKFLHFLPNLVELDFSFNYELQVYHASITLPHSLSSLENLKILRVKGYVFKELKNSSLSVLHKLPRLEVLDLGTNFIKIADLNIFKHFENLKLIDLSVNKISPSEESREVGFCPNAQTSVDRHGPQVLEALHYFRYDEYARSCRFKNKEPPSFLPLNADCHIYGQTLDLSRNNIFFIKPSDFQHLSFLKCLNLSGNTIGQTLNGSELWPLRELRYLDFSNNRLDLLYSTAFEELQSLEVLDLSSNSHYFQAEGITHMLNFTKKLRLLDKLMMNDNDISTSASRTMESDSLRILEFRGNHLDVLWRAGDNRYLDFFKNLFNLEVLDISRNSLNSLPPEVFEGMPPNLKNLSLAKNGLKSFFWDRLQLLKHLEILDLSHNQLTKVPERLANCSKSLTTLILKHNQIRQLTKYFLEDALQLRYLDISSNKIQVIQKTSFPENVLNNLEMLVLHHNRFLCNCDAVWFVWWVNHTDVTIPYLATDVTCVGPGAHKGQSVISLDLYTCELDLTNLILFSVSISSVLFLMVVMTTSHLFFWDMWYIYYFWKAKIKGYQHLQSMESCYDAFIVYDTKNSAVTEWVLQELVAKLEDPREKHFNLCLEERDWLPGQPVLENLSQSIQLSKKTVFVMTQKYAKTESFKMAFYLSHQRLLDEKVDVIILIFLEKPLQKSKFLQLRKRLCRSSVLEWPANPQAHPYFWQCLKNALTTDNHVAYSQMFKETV

Toll-like receptor 7 [5] = target: T2, Toll-like receptor 7 (Homo sapiens, UniProt Q9NYK1); assay: Antagonist activity at human TLR7 expressed in human PBMC cells assessed as inhibition of ssRNA stimulated IFNalpha level preincubated for 30 mins followed by stimulation and measured after 20 hrs by AlphaLISA method; assay type: cell-based
T2 sequence (Q9NYK1 whole entry): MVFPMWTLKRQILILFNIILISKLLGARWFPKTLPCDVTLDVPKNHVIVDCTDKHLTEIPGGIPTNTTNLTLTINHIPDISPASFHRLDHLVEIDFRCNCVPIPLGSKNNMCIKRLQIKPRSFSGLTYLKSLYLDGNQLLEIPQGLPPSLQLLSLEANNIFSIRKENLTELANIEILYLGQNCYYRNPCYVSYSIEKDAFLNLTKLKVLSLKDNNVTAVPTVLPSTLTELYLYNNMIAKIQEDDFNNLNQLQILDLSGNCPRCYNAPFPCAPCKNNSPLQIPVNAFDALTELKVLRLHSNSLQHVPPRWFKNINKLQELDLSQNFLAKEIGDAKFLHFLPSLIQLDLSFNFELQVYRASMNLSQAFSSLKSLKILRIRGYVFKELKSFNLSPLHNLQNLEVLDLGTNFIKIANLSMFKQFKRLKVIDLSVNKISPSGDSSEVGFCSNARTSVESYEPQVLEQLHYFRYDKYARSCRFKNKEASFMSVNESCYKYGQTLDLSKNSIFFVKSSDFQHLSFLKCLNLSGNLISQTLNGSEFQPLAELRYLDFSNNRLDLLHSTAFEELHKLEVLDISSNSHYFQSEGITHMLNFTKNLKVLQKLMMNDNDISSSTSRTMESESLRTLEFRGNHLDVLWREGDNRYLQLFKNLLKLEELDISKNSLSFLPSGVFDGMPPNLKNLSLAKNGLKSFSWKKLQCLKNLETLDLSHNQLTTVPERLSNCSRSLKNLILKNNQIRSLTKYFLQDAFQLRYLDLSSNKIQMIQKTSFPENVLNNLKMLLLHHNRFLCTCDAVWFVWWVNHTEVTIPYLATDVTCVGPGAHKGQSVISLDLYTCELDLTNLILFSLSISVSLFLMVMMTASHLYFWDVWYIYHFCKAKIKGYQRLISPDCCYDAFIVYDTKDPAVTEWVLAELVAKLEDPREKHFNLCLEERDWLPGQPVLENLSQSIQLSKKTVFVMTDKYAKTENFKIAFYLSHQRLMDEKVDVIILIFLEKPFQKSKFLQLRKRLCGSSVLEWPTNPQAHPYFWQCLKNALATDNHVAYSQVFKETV

[6] = Drug exposure in 129Sv mouse blood at 1 mg/kg, po by LC-MS/MS analysis; assay type: ADME, organism-based; settings: in vivo, read-out: Drug uptake
[7] = Dose normalized Cmax in Balb/c mouse at 10 mg/kg, po and 1 mg/kg, iv administered as cassette dose measured upto 24 hrs by LC/MS/MS analysis; assay type: ADME, organism-based; settings: in vivo

`Cc1cc(-c2cc3[nH]nc(N[C@@H]4CCNC[C@H]4F)c3cc2C2CC2)cc(C)n1` gave an MRT [1] of 2.5 h, a concentration [2] of 110 nM and an AUC [3] of 304 nM·h/mg/kg. For the same compound, the IC50 (Toll-like receptor 7 [4]) was 2 nM, the IC50 (Toll-like receptor 7 [5]) was 7 nM and the concentration [6] was 8 nM. It also gave a Cmax/dose [7] of 79 nM/mg/kg.

— ChEMBL document CHEMBL5046316, “Structure-Based Optimization of a Fragment-like TLR8 Binding Screening Hit to an In Vivo Efficacious TLR7/8 Antagonist” (ACS Med Chem Lett, 2022)
